Assay results taken from patent publication US20260242394A1, “USP2 INHIBITORS AND METHODS OF USING THE SAME FOR THE TREATMENT OF DISEASES” (ICAHN SCHOOL OF MEDICINE AT MOUNT SINAI, priority 2023, published 2026).
pIC50: −log10 of the molar value.

Tests used:
H460 and A375 cells = test: Cell viability assays in H460 and A375 cells; type: cell-based; conditions: FIGS. 9-11
Procedure: Example 217. (FIG. 9) Screening of selected USP2 inhibitors using cell viability assays. H460 cells were treated with […] of indicated compounds for 48 h, cell viabilities were indicated by the images of cell morphology. Example 218. (FIG. 10) Screening of selected USP2 inhibitors using cell viability assays. A375 cells were treated with indicated concentration of indicated compounds for 48 h, cell viabilities were indicated by the images of cell morphology. Example 219. (FIG. 11) GI50 determination of selected compounds in A375 cells after 48 hours treatment. 0.3 million of H460 cells were seeded in 6-well plate. Next day, cells were treated with 10 uM of drugs for 48 h. DMSO served as negative control. Images of cell morphology were obtained with Olympus IX51 microscope, indicating the cell viability upon treatment.

[1] = system: P53 and P21 protein levels in H460 and A375 cells; test: Immunoblotting of p53 and p21 protein levels in H460 and A375 cells; type: cell-based; conditions: FIGS. 12-13
Procedure: Example 220. (FIG. 12) Screening of selected USP2 inhibitors in H460 cells using immunoblotting experiments. The effect of selected USP2 inhibitors (10 μM, 48 h treatment time) on modulating the protein levels of p53 and p21 in H460 cells. Example 221. (FIG. 13) Screening of selected USP2 inhibitors in A375 cells using immunoblotting experiments. The effect of selected USP2 inhibitors with indicated concentration after indicated treatment time on modulating the protein levels of p53 and p21 in A375 cells. Whole cell extracts were prepared with Flag lysis buffer (50 mM Tris-HCl, pH 8.0, 137 mM NaCl, 1 mM NaF, 1 mM NaVO3, 1% Triton X-100, 0.2% sarkosyl, 0.5 mM DTT, 0.5 mM PMSF and 10% glycerol) containing fresh-added protease inhibitors. For cytosolic and nuclear fractions, the cell pellet was firstly incubated with Harvest buffer (10 mM Hepes (pH 8.0), 50 mM NaCl, 0.5 M sucrose, 0.1 mM EDTA, and 0.25% Triton X-100) containing fresh-added protease inhibitors for 5 min on ice followed by centrifugation @120 g for 10 min. The supernatant was cytosolic fraction. After wash twice with buffer A (10 mM Hepes (pH 8.0), 10 mM KCl, 0.1 mM EDTA, and 0.1 mM EGTA), nuclear pellet was lyzed with BC100 (50 mM Tris-HCl, pH 8.0, 100 mM NaCl, 0.2% Triton X-100, and 10% glycerol) containing fresh-added protease inhibitors for 30 min on ice to get the nuclear fraction. Protein concentration was measured with the protein assay dye reagent (Bio-Rad, Cat #5000006) as manufacturer's user guide. 20-60 μg total proteins were loaded to and separated in SDS-PAGE precast gels, then transferred to nitrocellulose membrane. After incubation with primary antibodies for overnight at 4° C., HRP-conjugated secondary antibodies were used, and western blot signals were detected on autoradiographic films after incubating with ECL substrate.

In vivo mouse PK studies = conditions: plasma, po, 10 mg/kg
Procedure: Example 222. (FIG. 14) PK results of selected compounds. (a) Plasma concentrations of MS102 and ML346 over 24 h after i.p. injection at 50 mg/kg dose. (b) Plasma concentrations of MS102 over 24 h using different administration routes: […]. (50 mg/kg) by. (c) Plasma concentrations of […]161-180 and XH153-182 over 8 h at 5 mg/kg dose by i.p. injection. (d) Plasma concentrations of XH161-172 over 24 h using different administration routes: […]) Plasma concentrations of XH161-180 over 24 h using different administration routes: […]. (10 mg/kg). Pharmacokinetic studies for ML364, MS102, MS1172, MS1180 and XH153-182 were performed by Sai Life Sciences Limited (India). Experiments were design with 3 mice/time point/compound. Animals were administered intraperitoneally, intravenously as slow bolus injection through tail vein, or through oral route with solution formulation of indicated compound at indicated dose. […] Blood samples (approximately 60 μL) were collected under light isoflurane anesthesia (Surgivet®) from a set of three mice at different time points. Immediately after blood collection, plasma was harvested by centrifugation at 4000 rpm, 10 min at 4° C., and samples were stored at -70±10° C. until bioanalysis. All samples were processed for analysis by protein precipitation method and analyzed with the fit-for-purpose LC-MS/MS method (LLOQ=1.01 ng/mL). […]

USP2 = target: T1, USP2 (Homo sapiens, UniProt O75604); test: biochemical
T1 sequence (O75604 259-605 limits assumed): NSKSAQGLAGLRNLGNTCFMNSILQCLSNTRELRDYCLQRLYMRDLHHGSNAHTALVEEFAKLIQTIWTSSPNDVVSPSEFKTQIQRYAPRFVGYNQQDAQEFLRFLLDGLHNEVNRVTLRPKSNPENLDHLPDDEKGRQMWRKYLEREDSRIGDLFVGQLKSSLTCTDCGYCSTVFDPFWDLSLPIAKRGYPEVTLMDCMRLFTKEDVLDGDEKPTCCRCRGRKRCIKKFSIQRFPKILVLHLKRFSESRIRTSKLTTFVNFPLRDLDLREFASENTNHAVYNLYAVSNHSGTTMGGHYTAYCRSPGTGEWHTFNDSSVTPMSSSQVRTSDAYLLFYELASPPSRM
Procedure: (FIG. 4) IC50 determination of selected USP2 inhibitors using USP2 enzymatic activity assays.
The USP2 (E-504-050, R & D Systems) and SARS-CoV-2 PLpro (100735, BPS Bioscience) deubiquitinase activity was determined with the DUB Activity Assay Kit (701490, Cayman), slightly modified based on the manufacturer's instructions. Briefly, the inhibitors were diluted as indicated with 40 μL of 1×DUB assay buffer, followed by adding 5 μL of DUB proteins. The plate was covered and incubated with the DUB-inhibitor mix at 37° C. for 30 minutes. Then, the plate cover was removed, and the reactions were initiated by quickly adding 5 μL of Ubiquitin-AMC to all wells being used. The fluorescence was read in an Infinite M1000 microplate reader (Tecan), with an excitation wavelength of 360 nm and emission wavelength of 460 nm. The DUB activity was calculated using the formulation provided by the kit.

[2] = system: ACE2 and cyclin D1 protein levels in HepG2 cells; test: Immunoblotting of ACE2 and cyclin D1 protein levels in HepG2 cells
Procedure: (FIG. 5) Screening of selected USP2 inhibitors in HepG2 cells using immunoblotting experiments. (a,b) The effect of selected USP2 inhibitors (5 M) on modulating the protein levels of ACE2 and cyclin D1 in HepG2 cells. […] (d) The effect of selected USP2 inhibitors (1 and 5 μM) on modulating the protein levels of ACE2 and cyclin D1 in HepG2 cells. (e-f) The effect of selected USP2 inhibitors (5 M) on modulating the protein levels of ACE2 and cyclin D1 in HepG2 cells.
In brief, cells were lysed in protease and phosphatase inhibitor-contained EBC buffer (50 mM Tris-HCl, pH 7.4; 120 mM NaCl; 0.5% NP-40). Protein concentrations were determined, and an equal amount of protein samples were harvested, followed by adding 5×SDS loading buffer (312 mM Tris-HCl, 10% SDS, 25 mM P-mercaptoethanol, 50% glycerol, and 0.05% bromophenol blue) and boiling for 10 min. SDS-PAGE electrophoresis, wet electroblotting, milk blocking, primary and secondary antibody incubation, and ECL development were conducted sequentially.

O=C(Nc1cc(F)ccc1C(=O)Nc1nc(-c2ccc(F)cc2)cs1)c1ccc(C(F)(F)F)cc1 [XH208-93p2, 4-Fluoro-N-(4-(4-fluorophenyl)thiazol-2-yl)-2-(4-(trifluoromethyl)benzamido)benzamide]
antiproliferation effect (H460 and A375 cells): antiproliferation effect
tumor suppressors P53 and P21 protein levels [1]: elevating

O=C(Nc1nc(-c2ccc(Br)cc2)cs1)c1ccc(F)cc1NS(=O)(=O)C1CCCCC1 [MS1180, N-(4-(4-bromophenyl)thiazol-2-yl)-2-(cyclohexanesulfonamido)-4-fluorobenzamide]
antiproliferation effect (H460 and A375 cells): antiproliferation effect
tumor suppressors P53 and P21 protein levels [1]: elevating
bioavailability (In vivo mouse PK studies): 95%

CC(C)S(=O)(=O)Nc1cc(F)ccc1C(=O)Nc1nc(-c2ccc(Br)cc2)cs1 [MS1172, N-(4-(4-bromophenyl)thiazol-2-yl)-4-fluoro-2-((1-methylethyl)sulfonamido)benzamide]
antiproliferation effect (H460 and A375 cells): antiproliferation effect
tumor suppressors P53 and P21 protein levels [1]: elevating
bioavailability (In vivo mouse PK studies): 100%

O=c1c2ccc(F)cc2nc(C(F)(F)F)n1-c1nc(-c2ccc(Br)cc2)cs1 [XH188-135p1, 3-(4-(4-Bromophenyl)thiazol-2-yl)-7-fluoro-2-(trifluoromethyl)quinazolin-4(3H)-one]
antiproliferation effect (H460 and A375 cells): antiproliferation effect
tumor suppressors P53 and P21 protein levels [1]: elevating

Cc1ccc(S(=O)(=O)Nc2cc(F)ccc2C(=O)Nc2nccs2)cc1 [XH153-182, 4-fluoro-2-((4-methylphenyl)sulfonamido)-N-(thiazol-2-yl)benzamide]
antiproliferation effect (H460 and A375 cells): antiproliferation effect
tumor suppressors P53 and P21 protein levels [1]: elevating

O=C(Nc1nc(-c2ccc(Br)cc2)cs1)c1ccc(F)cc1NC(=O)C(F)(F)F [XH188-135p2, N-(4-(4-Bromophenyl)thiazol-2-yl)-4-fluoro-2-(2,2,2-trifluoroacetamido)benzamide]
antiproliferation effect (H460 and A375 cells): antiproliferation effect
tumor suppressors P53 and P21 protein levels [1]: elevating

Cc1ccc(S(=O)(=O)Nc2ccc(C(F)(F)F)cc2C(=O)Nc2nc(-c3ccc(Br)cc3)cs2)cc1 [XH161-102 (MS102), N-(4-(4-bromophenyl)thiazol-2-yl)-2-((4-methylphenyl)sulfonamido)-5-(trifluoromethyl)benzamide]
pIC50 (USP2): 5.30
ACE2 protein level [2]: dose-dependent reduce

O=C(Nc1nc(-c2ccc(F)cc2)cs1)c1ccc(F)cc1NC(=O)C(F)(F)F [XH198-68p2, 4-Fluoro-N-(4-(4-fluorophenyl)thiazol-2-yl)-2-(2,2,2-trifluoroacetamido)benzamide]
antiproliferation effect (H460 and A375 cells): antiproliferation effect
tumor suppressors P53 and P21 protein levels [1]: elevating
